Test results as given in ChEMBL document CHEMBL1150267, “Synthesis and screening of mono- and di-aryl technetium and rhenium metallocarboranes. A new class of probes for the estrogen receptor” (J Med Chem, 2008).

Test: physchem
Details: octanol/water
Description: Lipophilicity, log P of the compound

Which logP does the source give for `c1ccc(Oc2ccccc2)cc1` here?
The logP was 4.2.
